Experimental findings from patent publication US8148392B2, “2-indolyl imidazo [4,5-d] phenanthroline derivatives and their use in the treatment of cancer” (Lorus Therapeutics Inc., priority 2005, dated 2012) are described below.

Entries after “also recorded” stand apart in the source; their conditions may differ.

Assay [1] relates to 12 human tumour cell lines. As to the kind of experiment: Hollow fiber assay. The note with it: for net cell kill: cell lines with net cell kill. In kind it is in vivo, athymic mice. An excerpt: For example, the in vivo activity of candidate compounds can also be tested using the Hollow Fiber Assay (Hollingshead, M., et al., (1995) Life Sciences 57:131-141; and Decker et al., Eur. J. of Cancer 40: 821-826 (2004)). In this assay, cells growing in hollow fibers (polyvinylidine fluoride, PVDF) are implanted in various body compartments of mice. A standard panel of 12 tumour cell lines can be used for the hollow fiber screening of candidate compounds which have shown activity in vitro. These cell lines may include NCI-H23, NCI-H522, MDA-MB-231, MDA-MB-435, SW-620, COLO 205, LOX-IMVI, UACC-62, OVCAR-3, OVCAR-5, U251 and SF-295. In addition, alternate lines such as those described in the above in vitro section can be used for specialized testing of compounds. The cell lines are cultivated according to standard protocols, and fibers are prepared by flushing cells into the PVDF fibers and sealing them at 2 cm intervals. The samples generated from these seals are placed into tissue culture medium and incubated at 37° C. in 5% CO2 for 24 to 48 hours prior to implantation. A total of 3 different tumour lines are prepared for each experiment so that each mouse receives 3 intraperitoneal implants (1 of each tumour line) and 3 subcutaneous implants (1 of each tumour line). On the day of implantation, samples of each tumour cell line preparation are quantitated for viable cell mass by, for example, a stable endpoint MTT assay, so that the time zero cell mass is known. Mice are treated with experimental agents starting on day 3 or 4 following fiber implantation and continuing daily for 4 days. Each agent is administered by intraperitoneal injection at 2 dose levels. The fibers are collected from the mice on the day following the fourth compound treatment and subjected to the stable endpoint MTT assay. The optical density of each sample is determined spectrophotometrically at 540 nm and the mean of each treatment group is calculated. The percent net growth for each cell line in each treatment group is calculated and compared to the percent net growth in the vehicle treated controls. A 50% or greater reduction in percent net growth in the treated samples compared to the vehicle control samples is considered a positive result. Each positive result is given a score of […] and all of the scores are totaled for a given compound. The maximum possible score for an agent is 96 (12 cell lines×2 sites×2 dose levels×2 [score]).
A candidate compound that is screened initially in the hollow fiber assay may subsequently be tested in a xenograft model if it has a combined ip+sc score of 20 or greater, a sc score of 8 or greater, or produces cell kill of any cell line at either dose level evaluated. This scoring system has been validated by DCTDC statisticians in CTEP to represent a level of detection expected to score current “standard” agents as active.
The in vivo efficacy of compounds according to Formula I was tested by determining the efficacy of compound 3 in the hollow fiber assay. This assay is described in Decker et al., Eur. J. of Cancer 40: 821-826 (2004), and was carried out by implanting 12 human tumour cell lines (Breast; MDA-MB-231, MDA-MB-435. Glioma; U251, SF-295. Ovarian; OVCAR-3, OVCAR-5. Colon; COLO-205, SW-620. Melanoma; LOX-IMVI, UACC-62 and Lung; NCI-H23, NCI-H522) into athymic mice as follows. Cell cultures were cultivated in RPMI-1640 containing 10% FBS and 2 mM glutamine. […]

The test system of assay [2] is Cyclin D1 protein. As to the kind of experiment: Cyclin D1 protein in HT-29 cells, Western blotting. The format is cell-based, human. The following applies: HT-29, 1 μM. The procedure:
Gene and protein expression of Cyclin D1 after treatment with compound 3 was determined by RT-PCR and Western blotting as shown in FIGS. 43A and 43B, respectively, as follows. HT-29 cells were treated with 1 μM compound 3 for indicated time. Total RNA was extracted and gene expression level was determined by RT-PCR. Cyclin D1 protein expression in HT-29 cell lysate was determined by SDS-PAGE followed by Western blotting.
To identify the cell cycle regulatory pathway involved in compound 3-mediated cell cycle arrest as shown in Example 23 and 41, particularly associated with G1/S phase, expression of the key cell cycle regulator of G1/S phase progression, Cyclin D1, was examined.
(In general: A western blot detects proteins with antibodies after separation by electrophoresis.)

Assay [3] relates to HT-29 cells. In words: HT-29 cell proliferation (XTT) after knock-down of KLF4 gene by siRNA. In kind it is cell-based, human. The note with it: HT-29, XTT. The procedure: Small interfering RNA (siRNA) transfection was performed as follows. Pre-designed MTF-1 siRNA (ID #115734) (Ambion, Austin, Tex.) was used to knockdown endogenous MTF-1 mRNA. Similarly, pre-designed KLF4 siRNA (ID #115492) (Ambion, Austin, Tex.) was used to knockdown endogenous KLF4 mRNA. A nonspecific, double-stranded RNA
was synthesized at Qiagen (Cambridge, Mass.) based on the sequence of an unrelated gene. HT-29 cells (3×10^5 cells in 35 mm-culture dishes) were transfected with indicated concentrations of siRNA or scrambled RNA control using Lipofectamine™ 2000 transfection reagent (Invitrogen) by following the manufacturer's instruction, for 6 hr. At the end of the incubation period, the transfection medium was supplemented with a complete growth medium and the cells were incubated at 37° C. for 24 hr before indicated experiments.
Background: Formazan colour is commonly taken as a measure of viable cells.

The subject of assay [4] is Egr-1. In words: Egr-1 gene expression in HT-29 cells, RT-PCR. In kind it is cell-based, human. The procedure:
Like Sp1, Egr-1 also is a transcription factor with zinc finger DNA-binding domains, which recognizes GC-rich sequences in the regulatory promoter region of the targeted gene (Al-Sarraj et al., (2005) J. Cell Biochem. 94(1): 153-167). Changes in Egr-1 gene expression were detected in compound 3-treated HT-29 cells by RT-PCR (FIG. 44A) as follows. HT-29 cells were treated with 1 μM compound 3 for the indicated times. Total RNA was extracted and gene expression level was determined by RT-PCR. To determine the effects of zinc supplement, HT-29 cells were treated with 1 μM compound 3, 35 μM ZnCl2 or compound 3 and ZnCl2 together for 8 hr. Egr-1 gene expression was determined by RT-PCR (FIG. 44B).

In assay [1] (2 dosages, 4 days treatment), `Cc1[nH]c2ccccc2c1-c1nc2c3cccnc3c3ncccc3c2[nH]1` [Compound 3] showed an ip score of 22 and a sc score of 10. Moreover, in assay [1], the net cell kill result was “positive cell killing; also recorded: one or more”. The net cell kill entry in assay [1] (listed as compound 3) was “positive cell kill”. In addition, the total score in assay [1] (ip + sc, maximum of 96) was 32. In addition, the “Cyclin D1 protein expression” value in assay [2] is “decrease in both gene (FIG. 43A) and protein (FIG. 43B) levels of Cyclin D1; also recorded: Decreased protein expression of Cyclin D1”. For the same compound, the “cell growth inhibition after knock-down of KLF4 gene by siRNA” value in assay [3] is “loss of compound 3-mediated cell growth inhibition”. In addition, the “Egr-1 expression change with zinc supplement” value in assay [4] (HT-29, 1 μM compound plus 35 μM ZnCl2, 8 hr) was “reversible upon addition of zinc supplement”. For the same compound, the Egr-1 gene expression entry in assay [4] (HT-29, 1 μM, as early as 2 hr) was “significant increase in Egr-1 gene expression”.
